Key:
SIRT2 = biological target: T1, SIRT2 (Homo sapiens, UniProt Q8IXJ6); assay: Sirtuin inhibition assay (HPLC), SIRT2; type: biochemical
T1 construct: SIRT2 (38-356); made in house
T1 sequence (Q8IXJ6 38-356): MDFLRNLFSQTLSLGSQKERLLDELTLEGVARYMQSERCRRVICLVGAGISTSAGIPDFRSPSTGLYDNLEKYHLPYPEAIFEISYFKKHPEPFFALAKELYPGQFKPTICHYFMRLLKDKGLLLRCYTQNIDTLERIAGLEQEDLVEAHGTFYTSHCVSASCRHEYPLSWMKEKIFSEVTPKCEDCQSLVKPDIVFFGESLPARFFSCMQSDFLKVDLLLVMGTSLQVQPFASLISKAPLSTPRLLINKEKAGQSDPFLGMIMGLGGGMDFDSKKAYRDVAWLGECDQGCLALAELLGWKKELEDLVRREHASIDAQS
Protocol: (§1) Plasmids of SIRT1 (full length), SIRT2 (38-356), SIRT3 (102-399), and SIRT5 (34-302) were generous gifts from Dr. Hening Lin (Cornell University, Ithaca, NY, USA). SIRT6 was a gift from Cheryl Arrowsmith (Addgene plasmid #28271). The proteins were expressed and purified according to previously published protocols. The identity of the protein was confirmed by tryptic digestion followed by LC-MS/MS analysis performed at the Vermont Genetic Network (VGN) Proteomics Facility. Protein concentrations were determined by Bradford assay (Thermo Fisher Scientific, Rockford, IL, USA).
(§2) A typical reaction contained 500 μM NAD^+ and 500 μM peptide substrate (H3K9Ac for SIRT2, SIRT3 and SIRT6, p53K382Ac for SIRT1 and SIRT5) of varying concentrations of a small molecule probe in 100 mM phosphate buffer pH 7.5. The reactions were initiated by the addition of 10 μM of sirtuin and were incubated at 37 °C before being quenched by 8 μL of 10% TFA. The incubation time was controlled so that the conversion of substrate was less than 15%. The samples were then injected on an HPLC fitted to a Macherey-Nagel Nucleosil C18 column. NAD^+, NAM and AADPR (acetyl-ADP-ribose) peaks were resolved using a gradient of 0 to 20% methanol in 20 mM ammonium acetate. Chromatograms were analyzed at 260 nm. Reactions were quantified by integrating areas of peaks corresponding to NAD^+ and AADPR. Rates were plotted as a function of small molecule probe concentration, and points were fitted to the following equation:ν(%) = ν0(%) − [ν0(%)(10^x)/(10^x + IC50)](1) where ν(%) represents the turnover rate expressed as percent enzymatic activity remaining, and ν0(%) represents the uninhibited turnover rate expressed as an enzymatic activity of 100%. The variable x represents the log[probe] in nanomolar. IC50 values were derived from this equation.

SIRT3 = biological target: T2, SIRT3 (Homo sapiens, UniProt Q9NTG7); assay: Sirtuin inhibition assay (HPLC), SIRT3; type: biochemical; settings: substrate H3K9Ac; 500 μM NAD+, 500 μM peptide, 10 μM sirtuin, pH 7.5, 37 °C
T2 construct: SIRT3 (102-399); made in house
T2 sequence (Q9NTG7 102-399): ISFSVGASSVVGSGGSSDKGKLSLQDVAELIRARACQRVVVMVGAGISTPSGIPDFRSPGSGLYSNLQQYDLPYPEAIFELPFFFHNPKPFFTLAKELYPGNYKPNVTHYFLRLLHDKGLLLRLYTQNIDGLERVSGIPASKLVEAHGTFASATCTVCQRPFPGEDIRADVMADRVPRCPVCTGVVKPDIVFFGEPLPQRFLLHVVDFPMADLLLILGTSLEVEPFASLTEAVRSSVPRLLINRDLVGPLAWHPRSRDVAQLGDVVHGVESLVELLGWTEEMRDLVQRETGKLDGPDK
Protocol: as §1, §2

SIRT5 = biological target: T3, SIRT5 (Homo sapiens, UniProt Q9NXA8); assay: Sirtuin inhibition assay (HPLC), SIRT5; type: biochemical
T3 construct: SIRT5 (34-302); made in house
T3 sequence (Q9NXA8 34-302): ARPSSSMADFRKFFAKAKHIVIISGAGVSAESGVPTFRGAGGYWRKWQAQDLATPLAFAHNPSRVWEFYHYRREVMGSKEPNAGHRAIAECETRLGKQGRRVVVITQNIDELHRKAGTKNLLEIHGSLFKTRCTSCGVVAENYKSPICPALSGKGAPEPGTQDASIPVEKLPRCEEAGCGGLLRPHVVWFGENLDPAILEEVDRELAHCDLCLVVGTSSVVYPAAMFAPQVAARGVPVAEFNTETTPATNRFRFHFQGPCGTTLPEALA
Protocol: as §1, §2

[1] = system: SIRT1, SIRT2, SIRT3, SIRT5, and SIRT6; assay: Labeling in recombinant sirtuin mixture, isoform selectivity; type: biochemical, human
Protocol: Figure 4 Labeling of SIRT5 by probe 2B. (A) Dose-dependent labeling of SIRT5 by probe 2B in recombinantly expressed, partially purified sirtuin mixture. SIRT1, SIRT2, SIRT3, SIRT5, and SIRT6 were mixed and incubated with 500 μM NAD^+ and increasing concentrations of 2B. The samples were incubated at 37 °C for 10 min and subjected to UV irradiation for 20 min, and then “click” conjugated to TAMRA-azide; (B) Chemical structure of H3K9Suc; (C) Peptide competition. The labeling of SIRT5 by probe 2B decreased with increasing concentrations of the competitor peptide, H3K9Suc.
(§3) Remarkably, probe 2C was also able to label individual sirtuin isoforms in cell lysates. HEK293 cells overexpressing human SIRT2 were lysed, and the lysate was subjected to the labeling by 10 μM probe 2C.
A typical labeling experiment was performed as follows: in a 0.7 mL Eppendorf tube, purified recombinant human sirtuin (10 μM) was incubated with NAD^+ (500 μM) and activity-based probe at 37 °C for 10 min. The sample was transferred to a clear-bottom 96-well plate, placed on ice, and irradiated at 365 nm with a UV-lamp in a cold room. […] Then, destained gel was analyzed with in-gel fluorescence scanning using a Biorad ChemiDoc MP imager (excitation 532 nm, 580 nm cut-off filter and 30 nm band-pass). […]

[2] = biological target: T4, wild-type SIRT6 (wtSIRT6) (Homo sapiens, UniProt Q8N6T7); assay: Labeling of wild-type SIRT6; type: biochemical
T4 construct: host or cells: E. coli (inferred from b12)
T4 sequence (Q8N6T7 whole entry): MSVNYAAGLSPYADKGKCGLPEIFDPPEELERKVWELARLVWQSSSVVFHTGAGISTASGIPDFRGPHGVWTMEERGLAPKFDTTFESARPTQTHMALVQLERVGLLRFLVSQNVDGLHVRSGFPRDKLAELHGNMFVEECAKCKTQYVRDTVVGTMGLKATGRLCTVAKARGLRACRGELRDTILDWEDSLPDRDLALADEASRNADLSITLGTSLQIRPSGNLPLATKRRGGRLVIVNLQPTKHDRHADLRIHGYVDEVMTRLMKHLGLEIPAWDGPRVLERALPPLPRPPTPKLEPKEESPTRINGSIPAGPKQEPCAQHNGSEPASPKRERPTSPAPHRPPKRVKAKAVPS
Protocol: as §3
A typical labeling experiment was performed as follows: in a 0.7 mL Eppendorf tube, purified recombinant human sirtuin (10 μM) was incubated with NAD^+ (500 μM) and activity-based probe at 37 °C for 10 min. The sample was transferred to a clear-bottom 96-well plate, placed on ice, and irradiated at 365 nm with a UV-lamp in a cold room. Subsequently, ingredients of the “click-chemistry” including azide-fluor 545, CuSO4, reducing agent (tris(2-carboxyethyl)phosphine, TCEP) and stabilizing agent (tris[(1-benzyl-1H-1,2,3-triazol-4-yl)methyl]amine, TBTA) were added, and the sample was gently agitated at 250 rpm on a microshaker at room temperature for 30 min. Then, the sample was resolved by SDS-PAGE. To […] the signal to noise ratio, the gel was destained to eliminate non-specific binding of free dyes. This was done in a mixture of methanol/distilled water/acetic acid (v/v/v = 4/5/1) at ambient temperature for 4 h. Then, destained gel was analyzed with in-gel fluorescence scanning using a Biorad ChemiDoc MP imager (excitation 532 nm, 580 nm cut-off filter and 30 nm band-pass). Finally, Coomassie blue staining was applied to provide loading control.

Row | Compound | IC50 (SIRT2; substrate H3K9Ac, 500 μM NAD+, 500 μM peptide, 10 μM sirtuin, pH 7.5, 37 °C) [mM] | IC50 (SIRT3) [mM] | increase of SIRT5 inhibition compared with 1B (SIRT5; ratio of IC50s) [fold] | labeling of other sirtuin isoforms in sirtuin mixture ([1]; partially purified recombinant sirtuin mixture) | increase of SIRT2 inhibition compared with 1C (SIRT2; ratio of IC50s) [fold] | selectivity for SIRT2 over SIRT6 (SIRT2; ratio of IC50s) [fold] | IC50 (SIRT5; substrate p53K382Ac, 500 μM NAD+, 500 μM peptide, 10 μM sirtuin, pH 7.5, 37 °C, NI = Not inhibited) [mM] | isoforms labeled in sirtuin mixture [1] | labeling of wtSIRT6 [2]
1 | C#CCCCC1(CCC(=O)N[C@@H](CCCCNC(=S)CCC(=O)O)C(=O)N[C@@H](C)C(=O)N[C@@H](C)C(=O)OC)N=N1 [Probe 2B] | > 5 | > 5 | ~1.7 | negligible labeling of the other sirtuin isoforms |  |  |  |  | 
2 | C#CCCCC1(CCC(=O)N[C@@H](CCCCNC(=S)CCCCCCCCCCCCC)C(=O)N[C@@H](C)C(=O)N[C@@H](C)C(=O)OC)N=N1 [Probe 2C] |  | > 2 |  |  | 3 | ~2 | > 5 | highlighting SIRT1, SIRT2, and SIRT6 | concentration-dependent labeling of wild-type SIRT6
